Source: PubChem BioAssay AID2060357 (Molecular Pharmacology Branch, DTP, NCI, 2025)

System: 292921-168-R-J2-PDC spheroids with HUVEC/MSC, viability
Experiment: Anticancer human tumor 292921-168-R-J2-PDC patient-derived pancreatic carcinoma cell line growth inhibition [TAK]
Conditions: for IC50: curve of first compound; for viability, T/C: stronger effect = lower value
How it was run: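 Tumor cells were grown as spheroids with HUVEC and hMSC (60:25:15) and treated with targeted agents combined with TAK-243 or ipatasertib. Drugs were tested in half-log steps down from near the clinical Cmax, or from 10 microM where Cmax was unknown.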

[1] = second compound 0.3 µM, first compound 0.0316 µM
[2] = second compound 0.3 µM, first compound 0.1 µM
[3] = second compound 0.3 µM, first compound 0.316 µM
[4] = second compound 0.3 µM, first compound 1 µM
[5] = second compound 0.949 µM, first compound 0.0316 µM
[6] = second compound 0.949 µM, first compound 0.1 µM
[7] = second compound 0.949 µM, first compound 0.316 µM
[8] = second compound 0.949 µM, first compound 1 µM
[9] = second compound 3 µM, first compound 0.0316 µM
[10] = second compound 3 µM, first compound 0.1 µM
[11] = second compound 3 µM, first compound 0.316 µM
[12] = second compound 3 µM, first compound 1 µM
[13] = second compound 9.49 µM, first compound 0.0316 µM
[14] = second compound 9.49 µM, first compound 0.1 µM
[15] = second compound 9.49 µM, first compound 0.316 µM
[16] = second compound 9.49 µM, first compound 1 µM
[17] = second compound 30 µM, first compound 0.0316 µM
[18] = second compound 30 µM, first compound 0.1 µM
[19] = second compound 30 µM, first compound 0.316 µM
[20] = second compound 30 µM, first compound 1 µM
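Also: spheroids exposed to drugs for seven days before readout.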

Compound	IC50 (second compound 0.3 µM) [nM]	IC50 (second compound 0.949 µM) [nM]	IC50 (second compound 3 µM) [nM]	IC50 (second compound 9.49 µM) [nM]	IC50 (second compound 30 µM) [nM]	viability, T/C [1] [%]	viability, T/C [2] [%]	viability, T/C [3] [%]	viability, T/C [4] [%]	viability, T/C [5] [%]	viability, T/C [6] [%]	viability, T/C [7] [%]	viability, T/C [8] [%]	viability, T/C [9] [%]	viability, T/C [10] [%]	viability, T/C [11] [%]	viability, T/C [12] [%]	viability, T/C [13] [%]	viability, T/C [14] [%]	viability, T/C [15] [%]	other results
COc1c(OCCCN2CCOCC2)ccc2c3n(c(=NC(=O)c4cnc(N)nc4)nc12)CCN3 + CC(C)NCC(C(=O)N1CCN(c2ncnc3c2C(C)CC3O)CC1)c1ccc(Cl)cc1	4.15	< 3.16	< 3.16	< 3.16	< 3.16	19.1	13.5	10.2	9.21	20	13.1	9.66	8.79	15.2	12.4	9.94	8.66	12	9.29	8.18	viability, T/C (second compound 0.3 µM, first compound 0.00316 µM): 55.2%; viability, T/C (second compound 0.3 µM, first compound 0.01 µM): 33.2%; viability, T/C (second compound 0.949 µM, first compound 0.00316 µM): 43.5%; viability, T/C (second compound 0.949 µM, first compound 0.01 µM): 27.5%; viability, T/C (second compound 3 µM, first compound 0.00316 µM): 30.2%; viability, T/C (second compound 3 µM, first compound 0.01 µM): 21.4%; viability, T/C (second compound 9.49 µM, first compound 0.00316 µM): 26.4%; viability, T/C (second compound 9.49 µM, first compound 0.01 µM): 15.9%; viability, T/C [16]: 7.72%; viability, T/C (second compound 30 µM, first compound 0.00316 µM): 19.8%; viability, T/C (second compound 30 µM, first compound 0.01 µM): 14.1%; viability, T/C [17]: 10.3%; viability, T/C [18]: 7.72%; viability, T/C [19]: 6.76%; viability, T/C [20]: 7.15%
Cc1nc(NC(=O)N2CCCC2C(N)=O)sc1-c1ccnc(C(C)(C)C(F)(F)F)c1 (stereo not given) + CC(C)NCC(C(=O)N1CCN(c2ncnc3c2C(C)CC3O)CC1)c1ccc(Cl)cc1	295	185	184	70.8	< 31.6	75.5	67.2	47.2	34.2	78.5	58.4	42.8	30.5	68.5	61.7	39.3	27.1	59.8	46.8	27.8	viability, T/C (second compound 0.3 µM, first compound 3.16 µM): 26.2%; viability, T/C (second compound 0.3 µM, first compound 10 µM): 20%; viability, T/C (second compound 0.949 µM, first compound 3.16 µM): 24.1%; viability, T/C (second compound 0.949 µM, first compound 10 µM): 19.6%; viability, T/C (second compound 3 µM, first compound 3.16 µM): 23.4%; viability, T/C (second compound 3 µM, first compound 10 µM): 15.3%; viability, T/C [16]: 21.1%; viability, T/C (second compound 9.49 µM, first compound 3.16 µM): 17.8%; viability, T/C (second compound 9.49 µM, first compound 10 µM): 12.7%; viability, T/C [17]: 41.1%; viability, T/C [18]: 33.2%; viability, T/C [19]: 23.9%; viability, T/C [20]: 16.4%; viability, T/C (second compound 30 µM, first compound 3.16 µM): 13.4%; viability, T/C (second compound 30 µM, first compound 10 µM): 9.1%
